Results reported in patent publication US4977179A, “Proline derivatives” (Otsuka Pharmaceutical Factory, Inc., priority 1986, dated 1990).

Target: T1, angiotensin-converting enzyme (ACE) (Rattus norvegicus, UniProt P47820)
T1 construct: enzyme solution prepared from rat lung; from tissue; host or cells: rat lung
T1 sequence (P47820 36-1313): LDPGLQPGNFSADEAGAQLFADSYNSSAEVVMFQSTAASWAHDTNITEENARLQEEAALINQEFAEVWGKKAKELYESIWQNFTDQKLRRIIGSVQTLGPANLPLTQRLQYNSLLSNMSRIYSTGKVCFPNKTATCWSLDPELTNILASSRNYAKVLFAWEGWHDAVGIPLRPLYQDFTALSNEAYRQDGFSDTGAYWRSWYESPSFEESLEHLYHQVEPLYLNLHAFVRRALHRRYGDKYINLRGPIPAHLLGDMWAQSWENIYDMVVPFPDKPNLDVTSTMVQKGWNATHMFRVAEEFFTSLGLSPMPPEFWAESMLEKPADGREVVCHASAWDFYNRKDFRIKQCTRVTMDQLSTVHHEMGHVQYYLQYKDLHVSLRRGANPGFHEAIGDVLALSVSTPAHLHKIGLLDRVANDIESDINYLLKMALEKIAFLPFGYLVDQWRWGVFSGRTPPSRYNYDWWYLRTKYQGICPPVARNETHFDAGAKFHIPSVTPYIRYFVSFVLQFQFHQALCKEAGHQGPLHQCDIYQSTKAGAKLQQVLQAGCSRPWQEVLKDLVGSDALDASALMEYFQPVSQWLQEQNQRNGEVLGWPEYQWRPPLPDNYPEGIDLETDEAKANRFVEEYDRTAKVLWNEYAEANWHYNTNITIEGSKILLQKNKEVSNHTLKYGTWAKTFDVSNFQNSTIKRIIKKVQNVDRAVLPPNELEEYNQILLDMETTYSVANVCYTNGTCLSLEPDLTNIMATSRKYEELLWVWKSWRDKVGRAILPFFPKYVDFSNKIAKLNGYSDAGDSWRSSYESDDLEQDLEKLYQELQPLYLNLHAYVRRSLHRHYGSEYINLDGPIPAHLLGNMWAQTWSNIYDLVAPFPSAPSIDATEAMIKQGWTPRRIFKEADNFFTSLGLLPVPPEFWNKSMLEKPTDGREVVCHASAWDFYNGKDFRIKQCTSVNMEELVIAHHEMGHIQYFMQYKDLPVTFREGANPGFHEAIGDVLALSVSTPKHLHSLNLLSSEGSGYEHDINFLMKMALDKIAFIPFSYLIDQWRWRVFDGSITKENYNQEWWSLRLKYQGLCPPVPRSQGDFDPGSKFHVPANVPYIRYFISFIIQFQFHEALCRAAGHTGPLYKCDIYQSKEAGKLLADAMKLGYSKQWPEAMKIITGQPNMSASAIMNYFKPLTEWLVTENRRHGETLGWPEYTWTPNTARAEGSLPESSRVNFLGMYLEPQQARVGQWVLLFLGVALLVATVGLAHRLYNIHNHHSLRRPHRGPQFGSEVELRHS
Experiment: Inhibitory activity against angiotensin-converting enzyme (ACE)
Type: biochemical
Conditions: enzyme solution from rat lung; substrate hippuryl-histidyl-leucine; phosphate buffer pH 8.3, 37° C., HPLC of hippuric acid; samples all used in the form of dicarboxylic acid
Method: Inhibitory activity against angiotensin-converting enzyme (ACE)
A […] of the compound of the present invention was dissolved in 50 ml of a phosphate buffer (pH 8.3). The solution was diluted with the same phosphate buffer as above to prepare a sample solution.
A 100 μl quantity of an enzyme solution prepared from rat lung was mixed with 100 μl of the sample solution. The mixture was gently shaken at 37° C. for 10 minutes. To the mixture was added 100 μl of a solution containing 6.99 mM of hippuryl-histidyl-leucine (product of Peptide Institute, Inc., Japan) as a substrate. The resulting mixture was incubated at 37° C. for 10 minutes. The reaction was terminated by addition of 100 μl of a 10% metaphosphoric acid to the reaction mixture and the mixture was neutralized with 1N-sodium hydroxide. A 10 μl quantity of the resulting mixture was subjected to high performance liquid chromatography (HPLC) for analysis. The area valve (S) of the hippuric acid formed by the reaction was measured. A control area valve (R) was measured by repeating the same procedure as above except that 100 μl of phosphate buffer (pH 8.3) was used in place of the sample solution.
A percent inhibition was calculated by the following equation: [formula] […]

CCCCOCCSC[C@H](NC(C)C(=O)N1CCC[C@H]1C(=O)O)C(=O)O (single isomer, unassigned) [Example 22]
IC50: 0.114 nM
